SMILES strings stand for the structures.

Here are results for 7 compounds from US8735389B2, “Treating psychological conditions using muscarinic receptor M1 antagonists” (priority 2006, dated 2014).

The test system of one series is male CD-1 mice. The experiment in a line: tail suspension test (immobility time). In kind it is in vivo. An excerpt: Antidepressant Effects: The tail suspension methodology was used to assess compounds for their antidepressant effects. The methodology was adapted from the original description by Stem et al. (Stem L, et al., Psychopharmacol 85:367-70, 1985; Stem L, et al., Prog Neuro-Psychopharmacol & Biol Psychiat 11:659-71, 1987) and later modifications by Crowley et al. (Crowley J J, et al., Pharmacol Biochem Beh 78(2):269-74, 2004). Seven- to eight-week-old (25-35 grams) male, CD-1 mice were housed for one week prior to testing. Mice (n=8-10 per dose group) were dosed intraperitoneally (ip) or orally (po) with the compound under investigation, and returned to their home cage for the appropriate pretreatment interval (45-60 min). Using tape, the mice were then suspended by the tail from a strain gauge. Activity over the next 6 minutes was scored by computer as either: 1) Immobility, 2) Escape Behavior or 3) Major Escape Behavior, based on the intensity of movements registered by the strain gauge. Total Immobility was calculated and expressed in seconds. […] Treatment effects are presented in Table 1 and FIGS. 1-6 as both raw Time Spent Immobile (in seconds±SEM [standard error of the mean]) and as % Reduction in Immobility=[1−(Treatment Immobility/Vehicle Immobility)]×100%. Similar superscripts in the Dose column of Table 1 denote values derived from the same experiment (to facilitate comparisons between individual treatments and co-administrations). Statistical analyses were performed using a 1-way ANOVA (analysis of variance) followed by a Bonferroni multiple comparison test with the overall alpha set at 0.05. In Table 1, asterisks (*) denote significant effects compared to vehicle-treated mice, while letters (a or b) denote significant effects compared to mice treated with a single compound (“a” for significance from antidepressant and “b” for significance from telenzepine). In Table 1, the symbol denotes p<0.05, two symbols denote p<0.01 and three symbols denote p<0.001). The symbols used for denoting statistical significance may be different in the corresponding figures.

The subject of the next series is mice and rats. To be noted: administered systemically; cited from earlier work.
Series [1] concerns dopamine efflux in the striatum. To be noted: local microinjection; cited from earlier work.
For another series, the system named is cortical receptors. As to conditions: cited from earlier work.
A further series deals with cardiac receptors. To be noted: cited from earlier work.
For another series, the system named is muscarinic receptor. To be noted: cited from earlier work.
For another series, the system named is GABA efflux. As to conditions: directly injected into the midbrain; cited from earlier work.
The conditions of series [2]: at 90 degrees; cited from earlier work.

Take `CN1CCN(CC(=O)N2c3ccccc3C(=O)Nc3cccnc32)CC1` [Pirenzepine, 5,11-Dihydro-11-[(4-methyl-1-piperazinyl)acetyl]-6H-pyrido[2,3-b][1,4]benzodiazepin-6-one]: the “Reduction in Immobility” value in the series with male CD-1 mice (5 mg/kg ip, experiment f) is recorded as −11%; in the series with male CD-1 mice (25 mg/kg ip, experiment f), 27%; in the series on male CD-1 mice (50 mg/kg ip, experiment f) it was 38%. The “Treatment Immobility Time” value in the series on male CD-1 mice (5 mg/kg ip, experiment f) stood at 137 ± 15 s; with male CD-1 mice (25 mg/kg ip, experiment f), 90 ± 17 s; with male CD-1 mice (50 mg/kg ip, experiment f), 76 ± 12 s. The “effect on immobility (in words)” value in the series on male CD-1 mice (alone at 50 mg/kg ip (FIG. 1)) was “significant reduction in immobility”. For the same compound, in the series on mice and rats, the behavioral effects result was “failed to elicit any behavioral effects”. The “dopamine efflux in the striatum” value in series [1] is listed as “decreased dopamine efflux in the striatum”.
As for `Cc1scc2c1N(C(=O)CN1CCN(C)CC1)c1ccccc1NC2=O` [(+) form of telenzepine], the “factor by which the (+) form is more effective than the (−) isomer” value with cortical receptors is 400. For the same compound, the “factor by which the (+) form is more potent than the (−) form” value with cardiac receptors is 50. For the same compound, in the series on muscarinic receptor, the antimuscarinic activity result was “potent antimuscarinic activity”.
Turning to `COc1ccc(C(CN(C)C)C2(O)CCCCC2)cc1` (stereo not shown) [Venlafaxine, venlafaxine], the “Reduction in Immobility” value was 8% with male CD-1 mice (3 mg/kg ip, experiment i); 10% in the series on male CD-1 mice (10 mg/kg ip, experiment b); −4% with male CD-1 mice (10 mg/kg ip, experiment i); 72% with male CD-1 mice (30 mg/kg ip, experiment i); 72% in the series with male CD-1 mice (30 mg/kg ip, experiment i, listed as venlafaxine). Besides, the “Treatment Immobility Time” value with male CD-1 mice (3 mg/kg ip, experiment i) came out at 103 ± 21 s; in the series with male CD-1 mice (10 mg/kg ip, experiment b), 103 ± 15 s; in the series with male CD-1 mice (10 mg/kg ip, experiment i), 116 ± 20 s; with male CD-1 mice (30 mg/kg ip, experiment i) it was 31 ± 09 s. Moreover, the “lowering of the effective antidepressant dose” value in the series with male CD-1 mice (to 10 mg/kg by co-administering 5 mg/kg telenzepine) was 3 fold.
In the case of `Cc1scc2c1N(C(=O)CN1CCN(C)CC1)c1ccccc1NC2=O` [Telenzepine, 4,9-Dihydro-3-methyl-4-[(4-methyl-1-piperazinyl)acetyl]-10H-thieno[3,4-b][1,5]benzodiazepin-10-one], the “Reduction in Immobility” value with male CD-1 mice (5 mg/kg ip, experiment a) is on record as 30%; with male CD-1 mice (5 mg/kg ip, experiment b), 21%; with male CD-1 mice (5 mg/kg ip, experiment d), −27%; in the series on male CD-1 mice (10 mg/kg ip, experiment c) it was 34%; with male CD-1 mice (25 mg/kg ip, experiment d), 33%; in the series with male CD-1 mice (50 mg/kg ip, experiment d), 51%. For the same compound, the “Reduction in Immobility” value in the series with male CD-1 mice (60 mg/kg po, experiment e) came to 45%; with male CD-1 mice (80 mg/kg po, experiment e), 37%; in the series on male CD-1 mice (100 mg/kg po, experiment e) it was 55%. Also, the “Treatment Immobility Time” value is 80 ± 14 s in the series on male CD-1 mice (5 mg/kg ip, experiment a); 90 ± 18 s in the series on male CD-1 mice (5 mg/kg ip, experiment b); 159 ± 23 s in the series on male CD-1 mice (5 mg/kg ip, experiment d); 64 ± 15 s with male CD-1 mice (10 mg/kg ip, experiment c); 84 ± 07 s in the series with male CD-1 mice (25 mg/kg ip, experiment d); 61 ± 11 s in the series with male CD-1 mice (50 mg/kg ip, experiment d). Further, the “Treatment Immobility Time” value in the series with male CD-1 mice (60 mg/kg po, experiment e) was 71 ± 15 s; in the series with male CD-1 mice (80 mg/kg po, experiment e), 82 ± 18 s; in the series on male CD-1 mice (100 mg/kg po, experiment e), 59 ± 10 s. Also, the “effect on immobility (in words)” value with male CD-1 mice (alone at 25 mg/kg ip (FIG. 2)) and in the series with male CD-1 mice (alone at 60 mg/kg po (FIG. 3)) was “significant reduction in immobility” each time. For the same compound, the GABA efflux result in the series on GABA efflux is given as “reduced GABA efflux”. For the same compound, the “half time of interconversion of the two forms” value in series [2] is “approximately 200 hours”.
`CN[C@H]1CC[C@@H](c2ccc(Cl)c(Cl)c2)c2ccccc21` [Sertraline, sertraline]: the “Reduction in Immobility” value in the series with male CD-1 mice (1 mg/kg ip, experiment a) amounted to 24%; with male CD-1 mice (5 mg/kg ip, experiment h), 48%; in the series on male CD-1 mice (5 mg/kg ip, experiment h, listed as sertraline) it was 48%; in the series with male CD-1 mice (20 mg/kg ip, experiment h), 59%; with male CD-1 mice (40 mg/kg ip, experiment h), 64%. Also, the “Treatment Immobility Time” value was 87 ± 14 s in the series on male CD-1 mice (1 mg/kg ip, experiment a); 63 ± 08 s in the series on male CD-1 mice (5 mg/kg ip, experiment h); 50 ± 16 s in the series on male CD-1 mice (20 mg/kg ip, experiment h); 44 ± 15 s with male CD-1 mice (40 mg/kg ip, experiment h). The “lowering of the effective antidepressant dose” value in the series on male CD-1 mice (to 1 mg/kg by co-administering 5 mg/kg TZP) worked out at 5 fold.
With `CNCCC(Oc1ccc(C(F)(F)F)cc1)c1ccccc1` (stereo not shown) [Fluoxetine, fluoxetine], the “Reduction in Immobility” value was 0% with male CD-1 mice (4 mg/kg ip, experiment c); 45% with male CD-1 mice (4 mg/kg ip, experiment g); 45% with male CD-1 mice (20 mg/kg ip, experiment g); 64% in the series with male CD-1 mice (40 mg/kg ip, experiment g). The “Treatment Immobility Time” value in the series with male CD-1 mice (4 mg/kg ip, experiment c) was 97 ± 11 s; with male CD-1 mice (4 mg/kg ip, experiment g) it was 81 ± 16 s; with male CD-1 mice (20 mg/kg ip, experiment g), 82 ± 16 s; in the series on male CD-1 mice (40 mg/kg ip, experiment g), 53 ± 14 s. The “lowering of the effective antidepressant dose (estimated)” value in the series on male CD-1 mice (to 4 mg/kg by co-administering 10 mg/kg TZP) is recorded as “approximately 7 fold”.
`Cc1scc2c1N(C(=O)CN1CCN(C)CC1)c1ccccc1NC2=O` [(−) form]: the antimuscarinic activity entry in the series with muscarinic receptor was “considerably less active”.
